# Results from publication PMC7540184 (Journal of natural products, 2020).
# Assays:
# Format in all cases: cell-based, human
# [1] = tested on: BT-549 cells; assay: Intracellular Ca2+ imaging; conditions: BT-549, 150 nM and 500 nM, after 3 h, sustained at 6 h
# [2] = tested on: MDA-MB-231 cells; assay: Intracellular Ca2+ imaging; conditions: MDA-MB-231, 150 nM
# [3] = tested on: BT-549 cells with NCX1 knockout; assay: Sensitivity of BT-549 cells after CRISPR knockout of NCX1; conditions: inducible Cas9, three sgRNAs targeted to NCX1
structure (smiles),measurement,setting,value
"C[C@@H]1C[C@H](O)[C@]2(O)O[C@@H]3C[C@@]4(C=O)[C@@H](CC[C@@H]5[C@@H]4CC[C@]4(C)[C@@H](C6=CC(=O)OC6)CC[C@]54O)C[C@H]3O[C@@H]2O1 [calotropin (9), Calotropin]",mean intracellular Ca2+ fluorescence compared to vehicle-treated cells,[1],significantly increased
same,change in Ca2+ fluorescence relative to BT-549 cells,[2],significantly less
same,effect of removing NCX1 on sensitivity of BT-549 cells,[3],did not reduce the sensitivity
